Experimental data from PMC10692228, “A simple method for developing lysine targeted covalent protein reagents” (Nature Communications, 2023).
Values belong to the substance of their own block, whether it stands above or below them.

Tests used:
[1] = system: 14-3-3σ; experiment: Covalent labeling of 14-3-3σ by peptides, intact protein LC/MS; format: binding, human; details: 5 µM peptide, 2 µM 14-3-3σ; for 14-3-3σ full peptide adduct (degree of labeling): 25 °C; for degree of labeling of 14-3-3σ: 37 C
Procedure: The LC/MS runs for 14-3-3σ were performed on a Waters ACQUITY UPLC class H instrument, in positive ion mode using electrospray ionization. […] The column was held at 40 °C and the autosampler at 10 °C. […] The run flow was 0.4 mL/min. […] The MS data were collected on a Waters SQD2 detector with an m/z range of 2–3071.98 at a range of 900–1900 m/z. The desolvation temperature was 500 °C with a flow rate of 800 L/h. The voltages used were 1.00 kV for the capillary and 24 V for the cone. MassLynx version 4.2 was used to operate the LCMS and analyze the data. Raw data were processed using openLYNX and deconvoluted using MaxEnt with a range of 28,000: 34,000 Da and a resolution of 1 Da/channel. […] For analysis, 24 μl sample was mixed with 6 μl of 2.4% formic acid in water and then 10 μl were injected to intact protein LCMS.

[2] = system: 14-3-3 proteins in A549 lysates; experiment: Labeling of 14-3-3 proteins by BODIPY-modified peptides in A549 lysates (SDS-PAGE fluorescence, western blot); format: binding; details: BODIPY-labeled derivatives of the peptides; 1 µM (peptides 3, 8) or 0.25 µM (peptide 12), lysate […], 25 °C, 1 h or 22 h
Procedure: A549 cells were obtained from biological services of the Weizmann Institute. For experiments in lysates, A549 cells were grown in DMEM + FBS. The cells were washed with PBS, scraped from the plate and centrifuged 200 × g for 5 min. […] Cells were incubated in the lysis buffer and centrifuged at 21,000 × g for 10 min at 4 °C. The protein concentration was estimated using BCA, and the lysate was diluted to 1.9 mg/ml in the lysis buffer. […] Then, 13.3 μl of 4X LDS samples buffer with 20 mM DTT was added and the samples were heated for 10 min at 70 °C. The samples were loaded on Bis-Tris gradient gels (4-20%, Genscript) and run using Tris-MOPS buffer at 60 mA/200 V. […] Images were processed and generated using ImageLab. […] Afterwards the gel was directly imaged in ChemiDoc. page 8: Supplementary Figure 7. Peptide binding selectivity in cell lysates and media. a) Raw images for the western blot experiment depicted in figure 5. Experiments was repeated 3 times. Top row: images for experiment done on A549 lysates. Bottom row: Images from extracellular medium. b) Direct gel imaging for experiment in which 1 μ[…] lysates at the indicated concentrations for 22 hours at 25°C. The same amount of lysate was loaded in each lane (28.5 μg). The intense fluorescence at the bottom comes from unbound peptide.

[3] = system: 14-3-3 proteins in extracellular medium of A549 cells; experiment: Detection of 14-3-3 proteins by BODIPY-modified peptides in extracellular medium of A549 cells; format: binding; details: BODIPY-labeled derivatives; concentrated serum-free medium of A549 cells grown 24 h or 48 h
Procedure: For experiments in medium, after growing the cells they were transferred to DMEM without FBS, followed by incubation for either 24 h or 48 h. After the incubation, 8.5 ml of the medium was filtered through a 0.2 µm filter, concentrated using a centrifugal concentrator (vivaspin, cutoff 8000–10,000 Da) to ~200 µl, and diluted to 8 ml using HEPES 50 mM pH = 7.5, 150 mM NaCl. This was followed by 2 additional rounds of dilution and concentration to ~200 µl. The samples were then diluted to 300 µl with IGEPAL added to 1% as well as protease inhibitors and PhosStop. 38 µl samples from the medium were then incubated with the peptides and analyzed as performed for the lysate, with 15 s exposure for fluorescence and 50 second exposure for chemiluminescence.

[4] = molecular target: human 14-3-3σ with an N-terminal His6-tag (human) (UniProt P31947)
[5] = molecular target: human 14-3-3σ with an N-terminal His6-tag (human) (UniProt P31947); remark: listed apart in the source
[6] = molecular target: human 14-3-3σ with an N-terminal His6-tag (human) (UniProt P31947); remark: listed apart in the source

Chain of UniProt P31947 (P31947 whole entry): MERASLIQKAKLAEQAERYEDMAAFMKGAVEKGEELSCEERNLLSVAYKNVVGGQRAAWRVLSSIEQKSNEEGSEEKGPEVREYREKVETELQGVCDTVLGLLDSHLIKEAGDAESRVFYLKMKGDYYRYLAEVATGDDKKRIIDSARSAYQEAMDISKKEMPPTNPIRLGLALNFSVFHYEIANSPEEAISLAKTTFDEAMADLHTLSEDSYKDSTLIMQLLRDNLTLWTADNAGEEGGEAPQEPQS

Substance: Ac-RAH-(pT)-(mC)-PASLQ-NH2 [Peptide 8, Methacrylate phosphopeptide derived from YAP-1 (PDB 3MHR)]
14-3-3σ full peptide adduct (degree of labeling) ([1]; intact protein LC/MS, time 0 h): 0
14-3-3σ full peptide adduct (degree of labeling) ([1]; time 1 h (60 min)): 34.14
14-3-3σ full peptide adduct (degree of labeling) ([1]; time 2.5 h (150 min)): 55.96
14-3-3σ full peptide adduct (degree of labeling) ([1]; time 5 h (300 min)): 74.24
14-3-3σ full peptide adduct (degree of labeling) ([1]; time 24 h (1440 min)): 86.25
degree of labeling of 14-3-3σ ([1]; LC/MS, time 0 h): 0
degree of labeling of 14-3-3σ ([1]; time 35 min): 53.08
degree of labeling of 14-3-3σ ([1]; time 70 min): 70.97
degree of labeling of 14-3-3σ ([1]; time 1.75 h): 80.85
degree of labeling of 14-3-3σ ([1]; time 4 h): 93.18
degree of labeling of 14-3-3σ ([1]; time 8 h): 91.76
increase of the rate of labeling at 37 °C ([1]; 37 °C versus 25 °C): roughly 4 fold
labeling of proteins in A549 lysates [2]: formed two main bands

Substance: Ac-RAH-(pT)-SPASL-X-NH2 [Peptide 12, reference compound]
detection of 14-3-3 proteins in extracellular medium [3]: 14-3-3σ was not detected
labeling of proteins in A549 lysates [2]: selectively labeled 14-3-3σ and generated a single fluorescent band

Substance: Peptide 3 (Ac-RSA-(pT)-(mC)-PSL-NH2)
percent covalent labeling within 5 h [4]: 60%
percent covalent labeling (overnight, 200 µM peptide) [5]: 51%
percent covalent labeling after 48 h [6]: 75%

Other lines, results leading:

percent covalent labeling within 5 h [4]: 80%
percent covalent labeling (overnight, 200 µM peptide) [5]: 35%
percent covalent labeling after 48 h [6]: 90%
Substance: Peptide 8 (Ac-RAH-(pT)-(mC)-PASLQ-NH2)

percent free 14-3-3σ remaining within 2.5 h [4]: < 5%
percent covalent labeling (overnight, 200 µM peptide) [5]: 57%
percent covalent labeling after 48 h [6]: 100%
Substance: Peptide 11 (Ac-RAH-(pT)-SPAS-(mC)-Q-NH2)
